The record followed here is paper PMC12363342, “Investigating the N-terminal linker histone H1 subtypes as substrates for JmjC lysine demethylases” (RSC Chemical Biology, 2025).

For one assay, the system named is KDM3C. Briefly: LC-MS demethylation activity assay, KDM3C. Type of assay: biochemical, human. Conditions: 2 μM KDM, 10 μM H1/H3 peptide, 10 μM FAS, 100 μM LAA, 20 μM 2OG, 50 mM HEPES pH 7.5, 2 h, room temperature. How it is done:
(§1) The substrate specificity of JmjC KDMs for H1 was examined using liquid chromatography coupled to mass spectrometry (LC-MS) assays. The H1 peptides (10 μM) were incubated with the recombinant KDM (2 μM) in HEPES buffer at pH 7.5 at room temperature for 2 h, in the presence of ferrous(II) ammonium sulfate (FAS, 10 μM), sodium ascorbate (LAA, 100 μM) and 2OG (20 μM), and then quenched with formic acid. N^ε-Methylated H3K9 and H3K36 peptides were used as positive controls (Fig. 3–5 and Fig. S2–S6).[26]
(§2) The catalytic domains of the JmjC KDMs used were recombinantly produced as reported in either Escherichia coli (KDM4AM1-L359,[38] KDM4DM1-L359,[39] KDM4EM1-R336,[30] KDM6BD1141–E1590[40] and KDM3CL2157-L2500) or Sf9 cells (KDM3AT515–S1317, KDM3B882–1761, and KDM5DM1-D775) as N-terminally His6-tagged proteins. […] To produce proteins, DNA sequences encoding for KDM3A, KDM3B and KDM5D were inserted into the pFB-LIC vector, containing a TEV-protease cleavable N-terminal 6x-histidine tag via ligation independent cloning (LIC). The resultant plasmids were transformed into baculovirus and Sf9 cells ([…]) which were infected with the virus stock. The cells were grown at 27 °C and 90 rpm for 70 h. Cells were then harvested and suspended in 100 mL of lysis buffer (50 mM HEPES-NaOH, pH 7.4, 500 mM NaCl, 20 mM imidazole, 0.5 mM Tris (2-carboxyethyl)phosphine (TCEP), 5% (v/v) glycerol). […] The supernatant was loaded onto a Ni-NTA gravity column, washed with 10 column volume of lysis buffer and eluted using the elution buffer (50 mM HEPES-NaOH, pH 7.4, 500 mM NaCl, 300 mM imidazole, 0.5 mM TCEP, 5% (v/v) glycerol). The eluted protein was further purified using S200 gel filtration column chromatography (50 mM HEPES-NaOH, pH 7.4, 150 mM NaCl, 0.5 mM TCEP and 5% glycerol). Protein purity was analysed by SDS-PAGE and further confirmed by mass spectrometry. Selected fractions were pooled, concentrated and stored at −80 °C.
(§3) All reagents were purchased from Sigma Aldrich and were of the highest grade available. Ferrous(II) ammonium sulfate (FAS) solutions were prepared freshly by dissolving FAS to 400 mM in 20 mM HCl with subsequent dilution to 1 mM using deionized water. Fresh 2OG (10 mM) and LAA (50 mM) solutions were prepared by dissolving the solids in deionised water. All enzyme reactions were performed in 384-well plates (Greiner Bio-One) with a final reaction volume of 50 μL. Substrate mixtures contained 50 mM HEPES pH 7.5, LAA (100 μM), FAS (10 μM), 2OG (20 μM) and an H1 isoform peptide (10 μM). Reactions were initiated by the addition of enzyme to a final concentration of 2.0 μM. After 2 h, the reactions were stopped by the addition of 5 μL of 10% (v/v) LC-MS grade formic acid (Fisher Scientific) to a final concentration of 1% (v/v). Product analyses were performed by liquid chromatography-mass spectrometry (LC-MS) using an Agilent 1290 infinity II LC system equipped with an Agilent 1290 multisampler and an Agilent 1290 high speed pump and connected to an Agilent 6550 accurate mass iFunnel quadrupole time of flight (Q-TOF) mass spectrometer. 1 μL of the reaction mixture was injected onto a 1.8 μm × 2.1 × 50 mm ZORBAX RRHD Eclipse Plus C18 column (Agilent). Solvent A consisted of HPLC grade water containing 0.1% (v/v) formic acid and solvent B consisted of MeCN containing 0.1% (v/v) formic acid. Peptides were separated using a stepwise gradient (0 min – 95% solvent A, 1.0 min – 80% solvent A, 3.0 min – 45% solvent A, 4.0 min – 45% solvent A, 5.0 min – 0% solvent A, 6.0 min – 0% solvent A, 7.0 min – 95% solvent A). This was followed by a 3 min post-run with 95% solvent A to re-equilibrate the column. All flow rates were 0.2 mL min^−1. A blank injection of HPLC grade water was carried out between each sample injection.

The next assay concerns KDM3B. The assay can be described thus: LC-MS demethylation activity assay, KDM3B. In kind it is biochemical, human. Conditions: 2 μM KDM, 10 μM H1/H3 peptide, 10 μM FAS, 100 μM LAA, 20 μM 2OG, 50 mM HEPES pH 7.5, 2 h, room temperature. The procedure: as §1, §2, §3
Another assay relates to KDM5D. The assay can be described thus: LC-MS demethylation activity assay, KDM5D. In kind it is biochemical, human. Conditions: 2 μM KDM, 10 μM H1/H3 peptide, 10 μM FAS, 100 μM LAA, 20 μM 2OG, 50 mM HEPES pH 7.5, 2 h, room temperature. How it is done:
as §1, §2, §3

For another assay, the target named is T1, KDM4D (Homo sapiens, UniProt Q6B0I6).
T1 construct: KDM4AM1-L359,[38]; KDM4DM1-L359,[39]; KDM4EM1-R336,[30]; His6 (N); made in house; host or cells: Escherichia coli
T1 sequence (Q6B0I6 1-359): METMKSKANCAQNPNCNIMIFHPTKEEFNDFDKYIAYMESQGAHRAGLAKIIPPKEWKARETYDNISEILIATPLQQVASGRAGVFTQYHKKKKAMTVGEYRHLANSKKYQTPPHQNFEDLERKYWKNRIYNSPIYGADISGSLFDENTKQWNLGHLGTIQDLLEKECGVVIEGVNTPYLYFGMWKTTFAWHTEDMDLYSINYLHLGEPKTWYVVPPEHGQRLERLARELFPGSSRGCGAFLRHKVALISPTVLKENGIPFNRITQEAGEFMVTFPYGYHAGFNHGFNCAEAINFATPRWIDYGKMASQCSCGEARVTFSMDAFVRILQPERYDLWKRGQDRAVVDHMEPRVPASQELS
The assay can be described thus: LC-MS demethylation activity assay, KDM4D. In kind it is biochemical. Conditions: room temperature. The procedure: as §1, §2, §3

In the next assay the target is T2, KDM4E (Homo sapiens, UniProt B2RXH2).
T2 construct: KDM4DM1-L359,[39]; KDM4EM1-R336,[30]; His6 (N); made in house; host or cells: Escherichia coli
T2 sequence (B2RXH2 1-336): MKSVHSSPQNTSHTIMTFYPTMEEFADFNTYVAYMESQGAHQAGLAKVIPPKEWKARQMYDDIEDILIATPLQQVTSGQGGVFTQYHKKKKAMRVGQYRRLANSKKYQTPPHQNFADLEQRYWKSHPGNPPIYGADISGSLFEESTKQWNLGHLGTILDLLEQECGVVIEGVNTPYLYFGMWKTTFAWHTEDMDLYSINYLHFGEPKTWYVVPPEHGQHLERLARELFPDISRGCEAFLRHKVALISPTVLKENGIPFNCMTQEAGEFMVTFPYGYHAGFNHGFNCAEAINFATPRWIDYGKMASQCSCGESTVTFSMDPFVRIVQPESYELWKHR
Briefly: LC-MS demethylation activity assay, KDM4E. In kind it is biochemical. Conditions: room temperature. The procedure:
as §1, §2, §3

The next assay deals with KDM4A. The assay can be described thus: LC-MS demethylation activity assay, KDM4A. Type of assay: biochemical, human. Conditions: 10 μM FAS, 100 μM LAA, 20 μM 2OG, room temperature; for substrate conversion (demethylation) by KDM4A: 2 μM KDM4A, 10 μM peptide, HEPES pH 7.5, 2 h. How it is done:
as §1, §2, §3

A further assay concerns KDM3A. The assay can be described thus: LC-MS demethylation activity assay, KDM3A. Type of assay: biochemical, human. Conditions: 2 μM KDM, 10 μM H1/H3 peptide, 10 μM FAS, 100 μM LAA, 20 μM 2OG, 50 mM HEPES pH 7.5, 2 h, room temperature. How it is done:
as §1, §2, §3

The test system of a further assay is KDM6B. The assay can be described thus: LC-MS demethylation activity assay, KDM6B. In kind it is biochemical, human. Conditions: 2 μM KDM, 10 μM H1/H3 peptide, 10 μM FAS, 100 μM LAA, 20 μM 2OG, 50 mM HEPES pH 7.5, 2 h, room temperature. How it is done:
as §1, §2, §3

The mark [1] stands for this setting: T (tri-) initial methylation state.
[2] abbreviates: 2 μM KDM4D, 10 μM peptide, standard conditions, 2 h.
Where [3] appears, read: 2 μM KDM, 10 μM H1/H3 peptide, 10 μM FAS, 100 μM LAA, 20 μM 2OG, 50 mM HEPES pH 7.5, 2 h, T (tri-) initial methylation state.
Setting [4] is: D (di-) initial methylation state.
The mark [5] stands for this setting: 2 μM KDM, 10 μM H1/H3 peptide, 10 μM FAS, 100 μM LAA, 20 μM 2OG, 50 mM HEPES pH 7.5, 2 h, D (di-) initial methylation state.
Setting [6] is: M (mono-) initial methylation state.
Where [7] appears, read: 2 μM KDM, 10 μM H1/H3 peptide, 10 μM FAS, 100 μM LAA, 20 μM 2OG, 50 mM HEPES pH 7.5, 2 h, M (mono-) initial methylation state.

Square brackets hold non-standard residues; d marks the D form. Ends that are not written are not given here. Lys(Me3) = C[N+](C)(C)CCCC[C@H](N)C(=O)O; Lys(Me2) = CN(C)CCCC[C@H](N)C(=O)O A value given as a limit tells only on which side of the number the result lay.

For “KKKAT[Lys(Me3)]KAAGAGAAK [Peptide H1.5K25me3, 15-mer linker histone H1.5 residues 20-34 peptide, tri-methylated K25]”, the “KDM3C demethylation activity, T” value in the assay on KDM3C (setting [1]) was “● [red]”. In addition, in the assay with KDM3B (setting [1]), the “KDM3B demethylation activity, T” value was “● [red]”. Besides, the “KDM5D demethylation activity, T” value in the assay on KDM5D (setting [1]) is “● [red]”. In addition, on KDM4D (setting [2]), the “KDM4D demethylation activity, in words” value is recorded as “No activity was observed” and the “di-methylated product formed by KDM4D” value is on record as below 5%. Besides, the “KDM4D demethylation activity, T” value on KDM4D (setting [3]) was “● [red]”. Besides, the “KDM4E demethylation activity, T” value on KDM4E (setting [3]) was “● [red]”. Moreover, the “substrate conversion (demethylation) by KDM4A” value in the assay with KDM4A is reported as below 10%. Also, in the assay with KDM4A (2 μM KDM, 10 μM H1/H3 peptide, 50 mM HEPES pH 7.5, 2 h, T (tri-) initial methylation state), the “KDM4A demethylation activity, T” value was “● [yellow] (yellow dots indicate moderate demethylation (<50% conversion))”. In addition, the “KDM3A demethylation activity, T” value in the assay with KDM3A (setting [1]) was “● [red]”. Moreover, the “KDM6B demethylation activity, T” value in the assay with KDM6B (setting [1]) was “● [red]”.
For the substance “KKKA[Lys(Me2)]KAGATAGKRK [Peptide H1.3K24me2, 15-mer linker histone H1.3 residues 20-34 peptide, di-methylated K24]”, the “KDM3C demethylation activity, D” value in the assay on KDM3C (setting [4]) was “● [red]”. The “KDM3B demethylation activity, D” value in the assay on KDM3B (setting [4]) is “● [red]”. For the same substance, the “KDM5D demethylation activity, D” value in the assay with KDM5D (setting [4]) is “● [red]”. In addition, at KDM4D (setting [2]), the “mono-methylated product formed by KDM4D” value is given as around 53% and the “non-methylated product formed by KDM4D” value is listed as around 8%. Also, the “KDM4D demethylation activity, D” value at KDM4D (setting [5]) was “● [green] (green dots indicate good demethylation (>50% conversion))”. In addition, the “unmethylated lysine product formed by KDM4E” value on KDM4E (2 μM KDM4E, 10 μM peptide, standard conditions, 2 h) is around 60%. Moreover, the “KDM4E demethylation activity, D” value at KDM4E (setting [5]) is “● [green] (green dots indicate good demethylation (>50% conversion))”. Besides, the “substrate conversion (demethylation) by KDM4A” value in the assay on KDM4A is recorded as around 23%. Also, the “KDM4A demethylation activity, D” value with KDM4A (2 μM KDM, 10 μM H1/H3 peptide, 50 mM HEPES pH 7.5, 2 h, D (di-) initial methylation state) is “● [yellow] (yellow dots indicate moderate demethylation (<50% conversion))”. Further, the “KDM3A demethylation activity, D” value in the assay with KDM3A (setting [4]) is “● [red]”. Also, the “KDM6B demethylation activity, D” value in the assay with KDM6B (setting [4]) is “● [red]”.
For “SAPATGGVKmeKPHRYRPGTVAL [Peptide H3K36me, histone H3 residues 28-48 peptide with mono-methylated K36; control, reference compound]”, the “KDM3C demethylation activity, M” value in the assay on KDM3C (setting [6]) is “● [red]”. Further, in the assay with KDM3B (setting [6]), the “KDM3B demethylation activity, M” value is “● [red]”. Also, the “KDM5D demethylation activity, M” value in the assay with KDM5D (setting [6]) was “● [red]”. The “KDM4D demethylation activity, M” value on KDM4D (setting [7]) was “● [red]”. Further, the “KDM4E demethylation activity, M” value at KDM4E (setting [7]) was “● [red]”. In addition, the “KDM4A demethylation activity, M” value in the assay on KDM4A (2 μM KDM, 10 μM H1/H3 peptide, 50 mM HEPES pH 7.5, 2 h, M (mono-) initial methylation state) is “● [red]”. Further, the “KDM3A demethylation activity, M” value in the assay with KDM3A (setting [6]) was “● [red]”. The “KDM6B demethylation activity, M” value in the assay on KDM6B (setting [6]) is “● [red]”.
